“And” between values parts separate entries of the source, which are not always exact repeats. Equal entries are not always repeated. Toxic doses and inconclusive results are not listed. The calls were made as follows: active = survival T/C of 150% or more; inactive = T/C below 125% in these data.
Test system: P388 leukemia ip, CD2F1 mice, survival T/C
Assay: NCI In Vivo Anticancer Drug Screen. Data for tumor model P388 Leukemia (intraperitoneal) in CD2F1 (CDF1) mice
Settings: endpoint: median survival time, higher = longer survival
In short: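 Mice carrying the transplanted tumor received test compound or vehicle. Survival was recorded in each group, and the value is the treated-group measurement divided by that of the vehicle-treated control group.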

[1] = dose: 60.0 mg/kg/injection, schedule: Q01DX005 (ip), vehicle: saline
[2] = dose: 120.0 mg/kg/injection, schedule: Q01DX005 (ip), vehicle: saline
[3] = dose: 50.0 mg/kg/injection, schedule: Q01DX009 (ip), vehicle: Klucel (hydroxypropylcellulose) (HPC)
[4] = dose: 100.0 mg/kg/injection, schedule: Q01DX009 (ip), vehicle: Klucel (hydroxypropylcellulose) (HPC)
[5] = dose: 200.0 mg/kg/injection, schedule: Q01DX009 (ip), vehicle: Klucel (hydroxypropylcellulose) (HPC)
[6] = dose: 50.0 mg/kg/injection, schedule: Q01DX009 (ip), vehicle: saline with Tween-80
[7] = dose: 100.0 mg/kg/injection, schedule: Q01DX009 (ip), vehicle: saline with Tween-80
[8] = dose: 200.0 mg/kg/injection, schedule: Q01DX009 (ip), vehicle: saline with Tween-80
[9] = dose: 60.0 mg/kg/injection, schedule: Q01DX005 (ip), vehicle: saline with Tween-80
[10] = dose: 120.0 mg/kg/injection, schedule: Q01DX005 (ip), vehicle: saline with Tween-80
[11] = dose: 50.0 mg/kg/injection, schedule: Q01DX005 (ip), vehicle: saline with Tween-80
[12] = dose: 100.0 mg/kg/injection, schedule: Q01DX005 (ip), vehicle: saline with Tween-80
[13] = dose: 200.0 mg/kg/injection, schedule: Q01DX005 (ip), vehicle: saline with Tween-80
[14] = dose: 15.0 mg/kg/injection, schedule: Q01DX005 (ip), vehicle: saline with Tween-80
[15] = dose: 30.0 mg/kg/injection, schedule: Q01DX005 (ip), vehicle: saline with Tween-80

Measured: T/C

COc1ccc(C2SCC(=O)N2c2nnc(C(F)(F)F)s2)c(OC)c1OC (centres undefined)
inactive: dose: 100.0 mg/kg/injection, schedule: Q04DX002 (ip), vehicle: saline with Tween-80 100 % of control | dose: 200.0 mg/kg/injection, schedule: Q04DX002 (ip), vehicle: saline with Tween-80 90 % of control | dose: 400.0 mg/kg/injection, schedule: Q04DX002 (ip), vehicle: saline with Tween-80 93 % of control

C/C=C1/CN2CCC34c5ccccc5N(C)C23C2CC1C4(C(=O)OC)C(O)O2 (centres undefined)
inactive: dose: 9.25 mg/kg/injection, schedule: Q01DX005 (ip), vehicle: saline + Tween-80 + alcohol 114 % of control | dose: 18.5 mg/kg/injection, schedule: Q01DX005 (ip), vehicle: saline + Tween-80 + alcohol 93 % of control | dose: 37.0 mg/kg/injection, schedule: Q01DX005 (ip), vehicle: saline + Tween-80 + alcohol 100 % of control | dose: 74.0 mg/kg/injection, schedule: Q01DX005 (ip), vehicle: saline + Tween-80 + alcohol 100 % of control

O=C(O)CCCCCCCCCCOc1ccc(Cl)cc1
inactive: dose: 50.0 mg/kg/injection, schedule: Q04DX003 (ip), vehicle: Klucel (hydroxypropylcellulose) (HPC) 96 % of control | dose: 100.0 mg/kg/injection, schedule: Q04DX003 (ip), vehicle: Klucel (hydroxypropylcellulose) (HPC) 99 % of control | dose: 200.0 mg/kg/injection, schedule: Q04DX003 (ip), vehicle: Klucel (hydroxypropylcellulose) (HPC) 105 % of control | dose: 400.0 mg/kg/injection, schedule: Q04DX003 (ip), vehicle: Klucel (hydroxypropylcellulose) (HPC) 92 % of control

Nc1nc(=O)n(C2CC(O)C(CO)O2)cc1Cl (centres undefined)
inactive: dose: 25.0 mg/kg/injection, schedule: Q01DX005 (ip), vehicle: saline 98 % of control | dose: 50.0 mg/kg/injection, schedule: Q01DX005 (ip), vehicle: saline 105 % of control | dose: 100.0 mg/kg/injection, schedule: Q01DX005 (ip), vehicle: saline 100 % of control | dose: 200.0 mg/kg/injection, schedule: Q01DX005 (ip), vehicle: saline 110 % of control | dose: 400.0 mg/kg/injection, schedule: Q01DX005 (ip), vehicle: saline 107 % of control

CN1CCC(c2ccccc2)=C(Br)C1
inactive: [1] 102 % of control | [2] 98 % of control

C1CC2OCC1O2 (centres undefined)
inactive: dose: 50.0 mg/kg/injection, schedule: Q01DX009 (ip), vehicle: saline 100 % of control | dose: 100.0 mg/kg/injection, schedule: Q01DX009 (ip), vehicle: saline 106 % of control | dose: 200.0 mg/kg/injection, schedule: Q01DX009 (ip), vehicle: saline 100 % of control

Clc1ccc([Si]23OCCN(CCO2)CCO3)cc1
inactive: dose: 0.19 mg/kg/injection, schedule: Q01DX009 (ip), vehicle: Klucel (hydroxypropylcellulose) (HPC) 93 % of control | dose: 0.39 mg/kg/injection, schedule: Q01DX009 (ip), vehicle: Klucel (hydroxypropylcellulose) (HPC) 99 % of control | dose: 0.78 mg/kg/injection, schedule: Q01DX009 (ip), vehicle: Klucel (hydroxypropylcellulose) (HPC) 108 % of control

CC(=O)O.CC(=O)O.CC(=O)O.CC(=O)O.[Cu].[Cu]
inactive: dose: 6.25 mg/kg/injection, schedule: Q04DX002 (ip), vehicle: Klucel (hydroxypropylcellulose) (HPC) 91 % of control | dose: 12.5 mg/kg/injection, schedule: Q04DX002 (ip), vehicle: Klucel (hydroxypropylcellulose) (HPC) 100 % of control

Cc1c(NC(=O)Nc2c(Cl)cccc2Cl)c(=O)n(-c2ccccc2)n1C
inactive: [3] 102 % of control | [4] 106 % of control | [5] 97 % of control

O=C(c1ccccc1)C1C(=O)c2ccccc2C1=O
inactive: [1] 95 % of control | [2] 99 % of control | dose: 240.0 mg/kg/injection, schedule: Q01DX005 (ip), vehicle: saline 95 % of control

CC(c1ccccc1)N1C(=O)CSC1=S (centres undefined)
inactive: dose: 25.0 mg/kg/injection, schedule: Q01DX009 (ip), vehicle: saline with Tween-80 100 % of control | [6] 100 % of control | [7] 100 % of control | [8] 100 % of control

CC1(C)OC2CC(=O)OCC23C1CC(=O)C1(C)C3CCC2(C)C(c3ccoc3)OC(=O)C3OC321 (centres undefined)
inactive: dose: 50.0 mg/kg/injection, schedule: Q01DX010 (ip), vehicle: saline 100 % of control | dose: 100.0 mg/kg/injection, schedule: Q01DX010 (ip), vehicle: saline 95 % of control | dose: 200.0 mg/kg/injection, schedule: Q01DX010 (ip), vehicle: saline 95 % of control

N#CC1C(=O)NC(=O)C(C#N)C1c1ccc(C2C(C#N)C(=O)NC(=O)C2C#N)cc1 (centres undefined)
inactive: [3] 105 % of control | [4] 100 % of control | [5] 113 % of control

CCOc1cccs1
inactive: [9] 102 % of control | [10] 100 % of control

O=C1c2ccccc2Cc2c(NCc3ccccc3)ncnc2N1Cc1ccccc1
inactive: [6] 104 % of control | [7] 101 % of control | [8] 90 % of control

COc1cc(O)c(C(C)c2ccccc2)cc1N=O (centres undefined)
inactive: [11] 92 % of control | [12] 87 % of control | [13] 92 % of control

C1=Nc2ccccc2Oc2ccc3ccccc3c21
inactive: [6] 107 % of control | [7] 99 % of control | [8] 107 % of control

CCCCCC(CN(C)C)C(=O)/C=C/c1ccc(F)cc1 (centres undefined)
inactive: dose: 12.5 mg/kg/injection, schedule: Q01DX005 (ip), vehicle: saline with Tween-80 98 % of control | dose: 25.0 mg/kg/injection, schedule: Q01DX005 (ip), vehicle: saline with Tween-80 104 % of control | [11] 107 % of control and 118 % of control | [12] 103 % of control

CN1C(=O)N(C)C2=NC(=O)N(C)C2(C(Cl)(Cl)Cl)C1=O (centres undefined)
inactive: dose: 7.5 mg/kg/injection, schedule: Q01DX005 (ip), vehicle: saline with Tween-80 103 % of control | [14] 102 % of control | [15] 112 % of control | [9] 112 % of control

CCOC(=O)CC(SP(=S)(OC)OC)C(=O)OCC (centres undefined)
inactive: [6] 103 % of control | [7] 112 % of control | [8] 107 % of control

ClC(Cl)(Cl)C(=NN=C(C(Cl)(Cl)Cl)C(Cl)(Cl)Cl)C(Cl)(Cl)Cl
inactive: [14] 106 % of control | [15] 103 % of control | [9] 100 % of control and 109 % of control

S=c1nc(-c2ccccc2)oc(=NC2CCCCC2)n1C1CCCCC1
inactive: [11] 98 % of control | [12] 101 % of control | [13] 109 % of control

CC(=O)OC1OC(C(OC(C)=O)C(Cl)Cl)OC1C(Cl)Cl (centres undefined)
inactive: [6] 97 % of control | [7] 105 % of control | [8] 112 % of control

CN=C(NC)Nc1nc(-c2ccccc2)c(-c2ccccc2)[nH]1
inactive: dose: 12.5 mg/kg/injection, schedule: Q04DX002 (ip), vehicle: saline with Tween-80 105 % of control | dose: 25.0 mg/kg/injection, schedule: Q04DX002 (ip), vehicle: saline with Tween-80 100 % of control | dose: 50.0 mg/kg/injection, schedule: Q04DX002 (ip), vehicle: saline with Tween-80 107 % of control

O=S(=O)(c1ccc(Cl)cc1)N(CCCCN(S(=O)(=O)c1ccc(Cl)cc1)S(=O)(=O)c1ccc(Cl)cc1)S(=O)(=O)c1ccc(Cl)cc1
inactive: [9] 99 % of control | [10] 93 % of control | dose: 240.0 mg/kg/injection, schedule: Q01DX005 (ip), vehicle: saline with Tween-80 90 % of control

Source: PubChem BioAssay AID330 (DTP/NCI, 2004)
